Data: patent US20190079094A1, “SUBCELLULAR LOCALIZATION OF TARGET ANALYTES” (Beckman Coulter, Inc., priority 2016, published 2019)
Entries after “also recorded” stand apart in the source; their conditions may differ.

Tests used:
[1] = tested on: T cells and monocytes in whole blood; assay: Digitonin and TX-100 titration on whole blood, flow cytometry (CytoCalcein Violet loss, HDAC1 staining); type: cell-based; conditions: for concentration at which the nucleus is also permeabilized: peaked HDAC1 staining
Excerpt: (§1) FIGS. 2A and 2B. Digitonin and TX-100 Titrations to Determine the Optimal Concentrations for Cytoplasmic vs. Nuclear Membrane Permeabilization. A) The cytoplasmic membrane in whole blood is fully permeabilized around 0.031% Digitonin, while the nucleus is also permeabilized around 0.5% Digitonin or 0.125% TX-100. B) The cytoplasmic membrane in PBMCs is fully permeabilized around 0.0016% Digitonin, while the nucleus is also permeabilized around 0.05% Digitonin or 0.025% TX-100. In this figure, the reduction in Calcein signal is indicative of permeabilization of the plasma membrane, while the peaked HDAC1 staining indicates complete nuclear permeabilization. The ledge that forms with HDAC1 prior to complete lysis is due to lysis of the endoplasmic reticulum, which also contains HDAC1.
(§2) FIG. 2 is a comparison of the efficiency of cytoplasmic vs. nuclear permeabilization of T cells and monocytes by different concentrations of Digitonin or TX-100. FIG. 2A is a titration performed on whole blood, while FIG. 2B is a titration performed on PBMCs. In both cases, the samples were first preloaded for 1 hour with 1 μM CytoCalcein Violet (AAT Bioquest, Inc) in a CO2-regulated 37° C. incubator. After 1 hour, the samples were fixed for 10 min with 4% PFA, and then incubated for 30 min at RT with the different concentrations of detergents diluted in diH2O, at a 1:5 ratio with the sample mixture. The samples were then washed and stained with anti-HDAC1-FITC (Abcam, Plc), washed again, and finally read on a Gallios flow cytometer (BCI). In this figure, cytoplasmic lysis is indicated by the loss of CytoCalcein Violet signal as it is released from the cell once the plasma membrane is permeabilized, while nuclear lysis is indicated by the increased HDAC1 signal as the nuclear membrane is permeabilized. In the case of Digitonin lysis, there is a ledge of HDAC1 staining once the plasma membrane is lysed and prior to full nuclear lysis; this is indicative of lysis of the endoplasmic reticulum, which also contains a repository of HDAC1. In whole blood, there is a working range for Digitonin between roughly 0.015% and 0.125%, where the plasma membrane is lysed, but the nucleus is not. For PBMCs, this range is roughly between 0.001% and 0.0125%.

[2] = tested on: T cells and monocytes in PBMCs; assay: Digitonin and TX-100 titration on PBMCs, flow cytometry (CytoCalcein Violet loss, HDAC1 staining); type: cell-based; conditions: for concentration at which the nucleus is also permeabilized: peaked HDAC1 staining
Excerpt: as §1, §2

[3] = tested on: MCF-7 cells; assay: Modified protocol with MCF-7 cells preloaded with CytoCalcein Violet; type: cell-based, human; conditions: for concentration permeabilizing only the plasma (cytoplasmic) membrane: loss of CytoCalcein Violet
Experimental: FIG. 4. Modified Protocol to Assess the Permeabilization of the Plasma Membrane with MCF-7 Cells. The cells were preloaded with CytoCalcein Violet, and cytoplasmic membrane permeabilization is indicated by the loss of this signal. In this experiment, 0.025% Digitonin or TX-100 permeabilized only the cytoplasm, while 0.25% of either fully permeabilized the both cytoplasmic and nuclear membranes.
In this experiment, after the cells had been plated for 24 hours, they were preloaded for 1 hour with 1 μM CytoCalcein Violet and then processed as indicated in FIG. 3. When the samples were ready for cover-slipping, mounting medium without DAPI was used. Images were captured on a Zeiss Axioskop 2 Plus microscope together with a 63× oil-immersion lens. In this figure, MCF-7 cells that were not permeabilized can be seen to be loaded with CytoCalcein Violet, and this staining is lost once the plasma membrane is permeabilized. […] In this experiment, 0.025% of both Digitonin and TX-100 can be seen to permeabilize the plasma membrane, while 0.25% of both can be seen to permeabilize the whole cell. This modified protocol was used for subsequent testing of the performance of the different detergents with whole blood and PBMCs by flow cytometry, including for the results in FIG. 2.

[4] = tested on: T cells and monocytes in whole blood; assay: Optimal lysis parameters for whole blood in MES-buffered solution (HSP60, Lamin A/C); type: cell-based; conditions: 5% fixative
Excerpt: FIGS. 5A and 5B. Cytoplasmic vs. Nuclear Membrane Permeabilization in a Whole Blood Sample using the Optimal Buffer Compositions. A) The CD45 vs. SS and FS vs. SS profiles of the samples after lysis. B) The degree of mitochondrial vs. nuclear membrane permeabilization in T cells. C) The degree of mitochondrial vs. nuclear membrane permeabilization in Monocytes. All of the detergent concentrations used in this experiment fully permeabilized the plasma membrane, while HSP60 and Lamin A/C indicate the degree of mitochondrial inner membrane and nuclear membrane permeabilization, respectively.
FIG. 5 indicates the optimal lysis parameters for whole blood, including modified buffer conditions in order to improve RBC lysis. […] In order to improve RBC lysis, the solution was ultimately buffered with MES at a pH between 4.5-6.5 (such as a pH of 5.5), which also allowed the salt concentration to be increased to physiological levels. This further improved the scatter profiles of the WBCs, decreased the time required for complete lysis to approximately 15 minutes, and improved the RBC lysis efficiency to the point that the buffers still work well if the fixation time is extended well beyond protocol (>20 min). At the same time, the fixative concentration was increased to 5% due to improved performance. In FIG. 5A, the scatter profiles for the optimal lysis parameters can be seen, where 0.0625% Digitonin is optimal for cytoplasmic membrane permeabilization, and either 0.5% Digitonin or 0.25% TX-100 are optimal for whole-cell membrane permeabilization. […] In both cases, the permeabilization profiles can be seen to be consistent with the defined optimal detergent concentrations.

[5] = tested on: Lymphocytes and Monocytes in whole blood; assay: Performance of detergents with whole blood (alternative approaches); type: cell-based; conditions: for concentration at which surface markers are lost and cells disintegrate: Buffer 2 upper bound
Experimental: An exemplary kit is composed of two separate buffers for whole-blood mononuclear cells (i.e., lymphocytes+monocytes): 1) The first buffer is to permeabilize the cytoplasm, including the ER, the endosomal system, and the outer mitochondrial membrane, while 2) the second buffer is to permeabilize everything permeabilized by the first buffer, plus the nucleus (and, in some embodiments, the inner mitochondrial matrix). Buffer 1 (Cytoplasm) may be composed of: 1-100 mM MES pH 4.5-6.5, 0-274 mM NaCl, 0-5.4 mM KCl, and 0.01-0.15% Digitonin. The optimal detergent concentration for Buffer 1 is between […] Digitonin, where the cytoplasm is lysed but the nucleus is not. Buffer 2 (Whole Cell) may be composed of: 1-100 mM MES pH 4.5-6.5, 0-274 mM NaCl, 0-5.4 mM KCl, and >0.01% Digitonin or >0.0125% Triton X-100. The optimal detergent concentration for Buffer 2 depends on the sample type, with the upper bound limited by the loss of surface markers and the disintegration of cells that occurs around 2% for both.
The methods of the invention rely on different detergents or detergent concentrations in order to gently lyse the cytoplasm plus as many cytoplasmic components as possible in one tube, and the whole cell including the nucleus in the other tube. For this reason, a variety of detergents will work to accomplish this task. Some are as follows, with reference to their performance with whole blood: […]

[6] = tested on: CREB, RelA and ERK phosphorylation in monocytes; assay: Stimulation of monocytes with LPS or GM-CSF, cytoplasmic vs. nuclear signaling; type: cell-based; conditions: 1 μg/mL LPS or 100 ng/mL GM-CSF
Experimental: FIG. 8. Differential Signaling in Monocytes Induced by 1 μg/mL LPS vs. 100 ng/mL GM-CSF. A) Both LPS and GM-CSF induced CREB phosphorylation at S133, accumulating maximally in the nucleus by 10 min. B) LPS stimulation induced RelA phosphorylation maximally by 10 min in both the cytoplasm and nucleus, though predominantly in the nucleus. C) Both LPS and GM-CSF stimulated ERK phosphorylation primarily in the cytoplasm, maximally by 5 min for GM-CSF and 10 min for LPS.
The protocol for processing whole blood samples is as follows (see FIG. 1 for a workflow): 1) The sample is first mixed 1:1 with fixative, vortexed, and then incubated for 10 minutes. An extra control tube is included for each buffer, which is stained with all antibodies except for the specific signaling or target antibodies being tested in order to subtract the background signal. The background control may also be labeled with isotype-control antibodies for more precise determination of non-specific binding, especially in cells that have characteristically high non-specific binding, such as neutrophils. For indirect antibody labeling, omitting the primary antibody, but still utilizing the secondary antibody, is a common method for determining the degree of non-specific background signal attributable to the secondary antibody, which is typically higher than the direct conjugates of target antibodies. […] 6) Once stained, the samples are again washed 2× with PBS or wash buffer, resuspended in PBS+0.5% PFA, and read on a flow cytometer.
After data acquisition, the samples are gated, compensated, and analyzed as standard flow cytometry samples. […] For example, if staining for the subcellular distribution of FoxP3, where the Background MFIs for the Cytoplasm and Whole Cell are 1.5 and the raw FoxP3 signal is 3.5 and 31.5 for the Cytoplasm and Whole Cell, respectively, then the Cytoplasmic MFI would be calculated to be 2 (i.e., 3.5 (raw)−1.5 (background)=2) and the Nuclear MFI would be calculated to be 28 (i.e., 31.5 (raw)−1.5 (background)−2 (Cytoplasm)=28). […]

[7] = Precipitation of detergent from solution at reduced pH; type: physicochemical; conditions: regardless of the concentration
Excerpt: However, the performance of CHAPS decreases at lower pHs, and Sodium Deoxycholate immediately precipitates out of solution at pHs lower than ˜7.0 regardless of the concentration. Therefore, these may be useful for PBMCs or cell lines where a reduced pH is not necessary, but not for whole blood.

Molecule	concentration for complete lysis of the cells [1]	concentration at which the nucleus is also permeabilized [1]	concentration for complete lysis of the cells [2]	concentration at which the nucleus is also permeabilized [2]	concentration permeabilizing the whole cell (cytoplasmic and nuclear membranes) [3]	concentration permeabilizing only the plasma (cytoplasmic) membrane [3]	optimal concentration for whole-cell membrane permeabilization [4]	concentration at which surface markers are lost and cells disintegrate [5]	other results
C[C@@H]1CC[C@@]2(OC1)O[C@H]1[C@@H](O)[C@H]3[C@@H]4CC[C@H]5C[C@@H](O[C@@H]6O[C@H](CO)[C@H](O[C@@H]7O[C@H](CO)[C@@H](O)[C@H](O[C@@H]8OC[C@@H](O)[C@H](O)[C@H]8O)[C@H]7O[C@@H]7O[C@H](CO)[C@H](O)[C@H](O[C@@H]8O[C@H](CO)[C@@H](O)[C@H](O)[C@H]8O)[C@H]7O)[C@H](O)[C@H]6O)[C@H](O)C[C@]5(C)[C@H]4CC[C@]3(C)[C@H]1[C@@H]2C [Digitonin]	0.25%	around 0.5%	0.025%	around 0.05%	0.25%	0.025%	0.5%	around 2%	concentration at which the cytoplasmic membrane is fully permeabilized ([1]; reduction in Calcein signal): around 0.031%; concentration at which the cytoplasmic membrane is fully permeabilized ([2]; reduction in Calcein signal): around 0.0016%; optimal concentration for cytoplasmic membrane permeabilization [4]: 0.0625%
GM-CSF: cytokine activator reagent									time of peak RelA S536 phosphorylation [6]: did not stimulate RelA phosphorylation at S536; time of peak ERK phosphorylation (S202/T204) ([6]; primarily cytoplasm): ≤ 5 min
Sodium Deoxycholate									pH below which the detergent immediately precipitates out of solution [7]: < 7.0
ethyoxylated octylphenol [TX-100]	0.125%	~0.125%	0.025%	~0.025%	0.25%	0.025%	0.25%	around 2%	working range where the plasma membrane is lysed but the nucleus is not [1]: does not provide this working range
Octylphenoxypoly(ethylene-oxy)ethanol [NP-40]									performance compared with TX-100 ([5]; whole blood): performs equivalently to TX-100; also recorded: interchangeable with TX-100 for whole-cell permeabilization
